The values below come from patent US11246965B2, “Compositions and methods for reducing neointima formation” (University of Georgia Research Foundation, Inc., priority 2013, dated 2022).

The subject of one series is CTP synthetase. The following applies: cited from earlier work; for CTPS activity: literature.
Another series deals with neointima SMCs. The series can be described thus: In vivo cell apoptosis by TUNEL assay in injured arteries. On the set-up: species or system rat. Conditions: 2 mg/kg b.w./day. As to the method: (§1) In vivo cell apoptosis was evaluated by detecting DNA fragmentation using the terminal deoxynucleotidyl transferase (TdT)-mediated dUTP-digoxigenin nick end-labeling method (TUNEL kit, Roche, USA). Apoptotic cells were observed under a fluorescent microscope. In vitro cell apoptosis was measured by Flow Cytometry. Cells were stained with both Annexin V-FITC (BD Biosciences) and propidium iodide (PI) and analyzed on a FACSCALIBUR™ (Becton Dickinson). The percentages of positive-stained cells were quantified using […]™ software (Becton Dickinson). Non-stained cells served as controls.
To confirm the specificity of CTPS1 function, CTPS1 was knockdown using adenoviral-mediated shRNA delivery in injured arteries.

The test system of series [1] is balloon-injured rat carotid arteries. The series can be described thus: Re-endothelialization in rat carotid artery balloon injury model (CD31, Evans blue). It is filed as in vivo. The following applies: 1 mg/kg CPEC, day 14. As to the method: Rat carotid artery balloon injury was performed using 2F Fogarty arterial embolectomy balloon catheter (Baxter Edwards Healthcare) as described previously (Tulis, Methods Mol. Med., 139:1-30 (2007)). 7, 14 or 60 days later, the balloon-injured arteries were perfused with saline, fixed with 4% paraformaldehyde, embedded in paraffin, and sectioned. Subsequent morphometric analyses were performed in a double-blinded manner. Ten sections that were evenly distributed in the vessel segments were collected for analysis. The sections were stained with modified hematoxylin and eosin or elastica van Gieson (VG) staining. Cross-sectional images were captured with a Nikon microscope (Nikon America Inc). The circumference of the lumen, internal elastic lamina, and external elastic lamina were measured using Image-pro Plus Software. For immunohistochemistry (IHC) staining, sections were rehydrated, blocked with 5% goat serum, permeabilized with 0.01% Triton X-100 in PBS, and incubated with primary antibodies at 4° C. overnight followed by incubation with horseradish peroxidase-conjugated secondary antibody. The sections were counterstained with hematoxylin.
To determine if CTPS1 plays a role in re-endothelialization during vascular remodeling in vivo, CPEC was administered systematically via osmotic pump into rats with balloon-injury or mice with wire-injury in their carotid arteries. […]

Series [2] concerns Rat aortic smooth muscle cells (SMCs). The series can be described thus: In vitro SMC apoptosis, PI/Annexin V flow cytometry. Conditions: 24 h treatment with 500 nM. It counts as cell-based. As to the method:
as §1

The test system is the same in series [3]. The series can be described thus: SMC proliferation (MTT cell proliferation assay). It is filed as cell-based. As for the experimental part: Rat aortic smooth muscle cells (SMCs) were cultured by enzyme-digestion method from rat thoracic aorta as described previously (Hofer, et al., Proc Natl Acad Sci USA., 98:6412-6416 (2001), Marquez, et al., Biochem Pharmacol., 41:1821-1829 (1991), (Berg, et al., Eur. J. Biochem., 216:161-167 (1993)). SMC phenotype of the cultured cells was confirmed by the expression of smooth muscle alpha-actin and SM22-alpha.
(§2) Cell proliferation was evaluated with 3-(4,5-dimethylthiazol-2-yl)-2,5-diphenyltetrazolium (MTT) assay using a TACS MTT Cell Proliferation Assay Kit (Trivegen). The optical density at 570 nm was measured.

In another series the test system is Endothelial cell C166. The series can be described thus: EC proliferation (MTT cell proliferation assay). It counts as cell-based. As to the method:
Endothelial cell C166 was purchased from ATCC and grown at 37° C. in a humidified atmosphere of 5% CO2 in DMEM (Invitrogen) supplemented with 10% FBS.
as §2
Background: Formazan colour is commonly taken as a measure of viable cells.

The test system of series [4] is wire-injured mouse carotid artery. The series can be described thus: Mouse carotid artery wire injury model, re-endothelialization (Evans Blue). Conditions: 10 mg/kg/day, in the presence of CPEC. It is filed as in vivo. As to the method: Mice were anesthetized with ketamine hydrochloride (80 mg/kg IP) and xylazine (5 mg/kg IP), a 0.38-mm flexible angioplasty guidewire was advanced by 1 cm via a transverse arteriotomy of the external carotid artery, and endothelial denudation of the common carotid artery was achieved by 3 rotational passes (Werner, et al., Circ. Res., 93:e17-e24 (2003)).
To further establish CTPS function in re-endothelialization after vascular injury, the endothelial denudation and re-endothelialization was tested in a different model, i.e., mouse wire-injury model. […] Systematic administration of CPEC was achieved via osmotic pump (1 mg/kg/day). Re-endothelialization in mouse arteries occurred rapidly following injury (FIG. 6B). 5 days after injury, re-endothelialization was completed, consistent with the previous reports (Hagensen, et al., Cardiovasc Res., 93:223-231 (2012)).

The mark [5] stands for this setting: abundant (10 μM) cytidine alone (FIG. 6D).

For the compound `N[C@H](C(=O)O)[C@@H]1CC(Br)=NO1` [3-bromoacivicin], the “CTP synthetase inhibitor potency relative to 3-chloro analog (acivicin)” value in the series on CTP synthetase (Conti, et al, ChemMedChem (2011)) is “three times as potent”.
As to `[N-]=[N+]=CC(=O)CC[C@H](N)C(=O)O` [6-diazo-5-oxonorleucine, 6-diazo-5-oxo-L-norleucin], the CTPS activity entry in the series on CTP synthetase is given as “effectively block CTPS activity”.
As to `Nc1ccn([C@@H]2C=C(CO)[C@@H](O)[C@H]2O)c(=O)n1` [CPEC, cyclopentenyl cytosine], the “in vivo cell apoptosis (TUNEL)” value in the series on neointima SMCs is “no apoptotic cells were observed”. In addition, in series [1], the “re-endothelialization area of the injured vessels (Evans blue)” value came to 66%. Moreover, the SMC apoptosis result in series [2] is given as “did not induce SMC apoptosis”.
Consider `Nc1ccn([C@@H]2O[C@H](COP(=O)(O)OP(=O)(O)OP(=O)(O)O)[C@@H](O)[C@H]2O)c(=O)n1` [CTP], for which the SMC proliferation entry in series [3] (setting [5]) is recorded as “not to be able to stimulate”. In the series on Endothelial cell C166 (setting [5]), the EC proliferation entry is “not to be able to stimulate”.
`O=c1oc2c(O)c(O)cc3c(=O)oc4c(O)c(O)cc1c4c23` [EA, ellagic acid]: in series [4], the re-endothelialization entry is recorded as “dramatically impaired”. Besides, the “cytidine-restored EC proliferation” value in the series on Endothelial cell C166 (CPEC + cytidine) is “blocked cytidine-restored EC proliferation in a dose-dependent manner”.
For `Nc1ccn([C@@H]2O[C@H](CO)[C@@H](O)[C@H]2O)c(=O)n1` [cytidine], the “restoration of SMC proliferation blocked by high dosage of CPEC” value in series [3] (500 nM CPEC + 10 μM cytidine) was “not SMC”. For the same compound, the “restoration of EC proliferation blocked by high dosage of CPEC” value in the series on Endothelial cell C166 (500 nM CPEC + 10 μM cytidine) is listed as “restored EC”.
`CC(=O)O[C@H]1C(=O)[C@@]2(C)[C@H]([C@H](OC(=O)c3ccccc3)[C@]3(O)C[C@H](OC(=O)[C@H](O)[C@@H](NC(=O)c4ccccc4)c4ccccc4)C(C)=C1C3(C)C)[C@]1(OC(C)=O)CO[C@@H]1C[C@@H]2O` [paclitaxel, Paclitaxel]: the SMC proliferation entry in series [3] (20 nmol/L or 500 nmol/L) is “suppressed”. Moreover, the EC proliferation entry with Endothelial cell C166 (20 nmol/L or 500 nmol/L) is recorded as “suppressed”. In the series with Endothelial cell C166 (500 nM paclitaxel with 10 μM cytidine), the “restoration of inhibitory effect on EC and SMC proliferation by cytidine” value is reported as “could not be restored by cytidine”. Further, in the series on Endothelial cell C166 (ECs compared with SMCs), the “relative sensitivity of SMCs and ECs (proliferation)” value is given as “ECs seemed to be more sensitive to paclitaxel than SMCs”.
carbodine: the CTPS activity entry in the series on CTP synthetase is “effectively block CTPS activity”.
